Experimental findings from ChEMBL document CHEMBL5375957, “Optimization of Novel α7 Nicotinic Acetylcholine Receptor Positive Allosteric Modulators and the Discovery of a Preclinical Development Candidate Molecule (RGH-560)” (J Med Chem, 2023) are described below.

Each structure is given as a SMILES string. ≈ marks a conversion by molar mass, not a printed value. Calls of active or inactive are those of the source. The calls are words filed in the database; no cut-off is given here.

A short description of data set [1]: Kinetic solubility of compound at pH 7.4 incubated for 2 hrs by UV-HPLC analysis. The format is physicochemical. The conditions noted are these: buffer, read-out: Kinetic_solubility.
The nature of data set [2]: Drug concentration in NMRI mouse plasma at 3 mg/kg, ip measured after 1 hr by HPLC-MS/MS analysis. The format is ADME, organism-based.
Data set [3] in a line: Metabolic stability in human liver microsome assessed as intrinsic clearance measured per mg of protein incubated for 40 mins. The format is ADME. The settings on record: liver microsomes, read-out: CLH.
Data set [4] can be described thus: Drug concentration in NMRI mouse brain at 10 mg/kg, ip measured after 1 hr by HPLC-MS/MS analysis. The format is ADME, organism-based. The settings on record: read-out: Ct.
Data set [5] in a line: Drug concentration in NMRI mouse plasma at 1 mg/kg, ip measured after 1 hr by HPLC-MS/MS analysis. The format is ADME, organism-based.
Data set [6] concerns Mus musculus. The data set is described as follows: Cognitive activity in scopolamine induced amnesia NMRI mouse model assessed as recognition index at 1 to 10 mg/kg, ip pretreated with compound for 30 mins followed by scopolamine induction by Y maze test. The format is functional, organism-based. The conditions noted are these: dose 1-10 mg/kg.
In data set [7] the target is Neuronal acetylcholine receptor subunit alpha-7 (Homo sapiens, UniProt P36544). Briefly: Positive allosteric modulator activity at human alpha7 nAChR expressed in Flp-In HEK293 cells assessed as increase in calcium influx incubated for 10 mins by fluorescence based analysis. Type of data set: cell-based.
A short description of data set [8]: Ratio of drug concentration in brain to plasma in NMRI mouse plasma at 1 mg/kg, ip measured after 1 hr by HPLC-MS/MS analysis. Type of data set: ADME, organism-based.
Data set [9] in a line: Drug concentration in NMRI mouse brain at 1 mg/kg, ip measured after 1 hr by HPLC-MS/MS analysis. Type of data set: ADME, organism-based. The conditions noted are these: read-out: Ct.
The nature of data set [10]: Ratio of drug concentration in brain to plasma in NMRI mouse plasma at 3 mg/kg, ip measured after 1 hr by HPLC-MS/MS analysis. Type of data set: ADME, organism-based.
Data set [11] is described as follows: Drug concentration in NMRI mouse plasma at 10 mg/kg, ip measured after 1 hr by HPLC-MS/MS analysis. Type of data set: ADME, organism-based.
Data set [12] is described as follows: Drug concentration in NMRI mouse brain at 3 mg/kg, ip measured after 1 hr by HPLC-MS/MS analysis. The format is ADME, organism-based. The conditions noted are these: read-out: Ct.
Data set [13] in a line: Metabolic stability in Wistar rat liver microsome assessed as intrinsic clearance measured per mg of protein incubated for 40 mins. Type of data set: ADME. The settings on record: liver microsomes, read-out: CLH.
The nature of data set [14]: Metabolic stability in NMRI mouse liver microsome assessed as intrinsic clearance measured per mg of protein incubated for 40 mins. Type of data set: ADME. The conditions noted are these: liver microsomes, read-out: CLH.
Data set [15] can be described thus: Ratio of drug concentration in brain to plasma in NMRI mouse plasma at 10 mg/kg, ip measured after 1 hr by HPLC-MS/MS analysis. The format is ADME, organism-based.
The nature of data set [16]: Metabolic stability in human Hepatocyte assessed as intrinsic clearance measured per million cells incubated for 40 mins. Type of data set: ADME, cell-based. The conditions noted are these: hepatocytes, read-out: CLH.
The nature of data set [17]: Toxicity in NMRI mouse assessed as effect on locomotor activity at 30 mg/kg, ip. Type of data set: organism-based. The settings on record: in vivo.
The test system of data set [18] is Mus musculus. Briefly: Cognitive activity in scopolamine induced amnesia ip dosed NMRI mouse model assessed as minimum effective dose pretreated with compound for 30 mins followed by scopolamine induction. Type of data set: functional. The conditions noted are these: 0.5 h.
Data set [19] has as its target Voltage-gated inwardly rectifying potassium channel KCNH2 (Homo sapiens, UniProt Q12809). The data set is described as follows: Inhibition of hERG transfected in CHO cells at -80 mV holding potential by automated patch clamp assay. The format is toxicity, cell-based.
A short description of data set [20]: Apparent permeability in human Caco2 cells at 10 uM. The format is ADME, cell-based. The conditions noted are these: Caco-2.
Data set [21] can be described thus: Efflux ratio of apparent permeability in human Caco-2 cells at 10 uM. Type of data set: ADME, cell-based.

Neuronal acetylcholine receptor subunit alpha-7, sequence (P36544 whole entry): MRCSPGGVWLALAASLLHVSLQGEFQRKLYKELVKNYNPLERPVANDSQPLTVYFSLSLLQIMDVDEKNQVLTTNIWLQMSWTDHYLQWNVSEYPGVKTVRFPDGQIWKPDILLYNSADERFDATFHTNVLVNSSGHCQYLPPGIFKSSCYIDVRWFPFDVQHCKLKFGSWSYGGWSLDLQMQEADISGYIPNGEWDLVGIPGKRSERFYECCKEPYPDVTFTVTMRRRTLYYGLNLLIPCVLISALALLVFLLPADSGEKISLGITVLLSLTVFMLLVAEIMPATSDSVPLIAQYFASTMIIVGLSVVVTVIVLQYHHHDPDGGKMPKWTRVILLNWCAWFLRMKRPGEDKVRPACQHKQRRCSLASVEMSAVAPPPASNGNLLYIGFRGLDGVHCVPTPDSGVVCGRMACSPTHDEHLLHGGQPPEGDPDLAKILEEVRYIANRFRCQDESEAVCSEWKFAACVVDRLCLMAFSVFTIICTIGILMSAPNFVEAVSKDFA
Voltage-gated inwardly rectifying potassium channel KCNH2, sequence (Q12809 whole entry): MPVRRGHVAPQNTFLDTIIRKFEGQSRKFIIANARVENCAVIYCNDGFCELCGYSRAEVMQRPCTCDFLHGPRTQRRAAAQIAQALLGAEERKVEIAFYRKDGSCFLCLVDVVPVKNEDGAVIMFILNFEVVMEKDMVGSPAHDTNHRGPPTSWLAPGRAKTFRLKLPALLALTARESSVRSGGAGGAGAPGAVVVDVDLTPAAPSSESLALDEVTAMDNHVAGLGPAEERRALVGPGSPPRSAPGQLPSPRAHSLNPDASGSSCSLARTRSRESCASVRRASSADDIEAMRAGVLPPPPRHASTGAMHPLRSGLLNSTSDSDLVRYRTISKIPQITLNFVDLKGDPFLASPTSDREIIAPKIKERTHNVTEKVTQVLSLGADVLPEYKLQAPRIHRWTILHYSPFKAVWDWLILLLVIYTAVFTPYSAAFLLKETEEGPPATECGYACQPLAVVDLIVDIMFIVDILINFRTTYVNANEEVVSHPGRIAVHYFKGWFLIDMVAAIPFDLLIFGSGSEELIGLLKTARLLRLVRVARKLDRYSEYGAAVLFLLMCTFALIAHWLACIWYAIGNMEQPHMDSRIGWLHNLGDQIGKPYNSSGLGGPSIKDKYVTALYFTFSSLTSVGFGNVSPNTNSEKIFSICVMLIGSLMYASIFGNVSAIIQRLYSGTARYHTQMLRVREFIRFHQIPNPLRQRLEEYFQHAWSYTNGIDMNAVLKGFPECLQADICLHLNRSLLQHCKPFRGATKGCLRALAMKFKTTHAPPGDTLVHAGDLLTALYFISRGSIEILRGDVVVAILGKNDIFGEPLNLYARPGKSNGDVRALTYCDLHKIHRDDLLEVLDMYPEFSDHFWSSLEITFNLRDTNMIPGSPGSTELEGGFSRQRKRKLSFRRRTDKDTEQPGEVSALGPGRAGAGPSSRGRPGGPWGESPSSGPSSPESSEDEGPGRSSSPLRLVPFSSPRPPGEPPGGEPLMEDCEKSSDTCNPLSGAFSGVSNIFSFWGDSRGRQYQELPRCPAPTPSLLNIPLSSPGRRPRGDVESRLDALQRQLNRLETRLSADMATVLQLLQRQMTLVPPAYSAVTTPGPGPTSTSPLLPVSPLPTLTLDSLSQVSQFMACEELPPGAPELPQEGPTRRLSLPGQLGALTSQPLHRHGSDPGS

As for `Cn1ccc2cc(CNC(=O)N3CC(COc4ccc(C(F)(F)F)cc4)C3)cnc21`, the solubility kinetic at 2 h in [1] worked out at 2.5 µM (≈ 1.05 µg/mL). Moreover, the concentration at 1 h in data set [2] is 689 ng/mL; in [4] it was 438 ng/g; in data set [5], 179 ng/mL; in [9], 46.8 ng/g; in data set [11], 2090 ng/mL; in [12] it was 174 ng/g. Moreover, the microsomal CLint in [3] came to 17 µL/min/mg; in [13] it was 77 µL/min/mg; in data set [14] it was 123 µL/min/mg. Further, the result in the data set on Mus musculus [6] was Active. Moreover, the EC50 in data set [7] worked out at 200 nM. Moreover, the Kp at 1 h came to 0.26 in [8], 0.25 in data set [10] and 0.22 in [15].

Regarding `Cn1ccc2cc(CNC(=O)N3CC4(CC(=O)c5ccccc5O4)C3)ccc21`, the solubility kinetic at 2 h in [1] was found to be 51.5 µM (≈ 19.3 µg/mL). In addition, the values for the microsomal CLint in [3], in [13] and in data set [14] were 24 µL/min/mg, 46 µL/min/mg and 52 µL/min/mg, respectively. Moreover, the result in the data set with Mus musculus [6] was Active.

Take `Cn1ccc2cc(CNC(=O)N3CC4(CC(=O)c5ccc(F)cc5O4)C3)ccc21`: in data set [16], the hepatocyte CLint worked out at 10.3 µL/min/1e6 cells. For the same compound, in [1], the solubility kinetic at 2 h came to 46 µM (≈ 18.1 µg/mL). The concentration at 1 h in data set [2] came out at 262 ng/mL; in data set [4] it was 248 ng/g; in data set [5], 107 ng/mL; in [9], 29 ng/g; in [11], 2050 ng/mL; in [12], 78.5 ng/g. The microsomal CLint in [3] was 13 µL/min/mg; in data set [13], 30 µL/min/mg; in data set [14], 49 µL/min/mg. Further, the result in the data set with Mus musculus [6] was Active. Besides, the Activity entry in data set [17] is “Non-Toxic”. Further, the results for the Kp at 1 h in data set [8], in data set [10] and in data set [15] were 0.27, 0.3 and 0.31, respectively. Besides, the MED with Mus musculus [18] stood at 10 mg/kg.

Take `O=C(NCc1ccc2[nH]ccc2c1)N1CC(COc2ccc(C(F)(F)F)c(F)c2)C1`: the solubility kinetic at 2 h in data set [1] was 14.2 µM (≈ 5.98 µg/mL). Moreover, 10000 nM corresponded to half-maximal inhibition in [19] (IC50). Besides, the concentration at 1 h in data set [2] was 610 ng/mL; in [4] it was 2810 ng/g; in data set [5] it was 167 ng/mL; in data set [9], 201 ng/g; in data set [11], 4230 ng/mL; in [12], 678 ng/g. For the same compound, the microsomal CLint is 39 µL/min/mg in data set [3], 44 µL/min/mg in [13] and 36 µL/min/mg in data set [14]. Further, in data set [20], the Papp at 10 µM stood at 63 ×10⁻⁶ cm/s. In [21], the efflux ratio at 10 µM turned out to be 1.3. For the same compound, the result in the data set with Mus musculus [6] was Active. Moreover, the EC50 in [7] was 85 nM. In addition, the Kp at 1 h worked out at 1.2 in [8], 1.12 in data set [10] and 0.66 in data set [15]. Moreover, the MED in the data set with Mus musculus [18] came out at 3 mg/kg.

Turning to `Cc1cc2cc(CNC(=O)N3CC4(CC(=O)c5ccc(F)cc5O4)C3)ccc2[nH]1`, the solubility kinetic at 2 h in [1] was found to be 38.7 µM (≈ 15.2 µg/mL). Moreover, the results for the microsomal CLint in data set [3], in data set [13] and in [14] were 14 µL/min/mg, 25 µL/min/mg and 64 µL/min/mg, respectively. Besides, the result in the data set on Mus musculus [6] was Active. The EC50 in data set [7] is 100 nM.
